Measurements taken from ChEMBL document CHEMBL1201862, “PubChem BioAssay data set” (2004).
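Exposure lasted 48 hours, with cells grown in 96-well plates and compounds tested at five concentrations. The concentration for 50% growth inhibition is given as GI50.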 Calls of active or inactive are those of the source. Rule as the data show it: active = GI50 up to about 1.1 µM and inactive = higher.

How the values were obtained:
Assay in all cases: NCI anticancer screen, dose series, 48 h
SF-268 = test system: SF-268
SK-MEL-5 = test system: SK-MEL-5
CCRF-CEM = test system: CCRF-CEM
IGROV-1 = test system: IGROV-1
COLO 205 = test system: COLO 205
BT-549 = test system: BT-549
NCI-H460 = test system: NCI-H460
DU-145 = test system: DU-145
CAKI-1 = test system: CAKI-1
SNB-75 = test system: SNB-75
HL-60 = test system: HL-60
Malme-3M = test system: Malme-3M
SK-MEL-28 = test system: SK-MEL-28
A549 = test system: A549
UACC-62 = test system: UACC-62
ACHN = test system: ACHN
T47D = test system: T47D
HCT-116 = test system: HCT-116
MDA-MB-435 = test system: MDA-MB-435
SNB-19 = test system: SNB-19
Hs-578T = test system: Hs-578T
KM12 = test system: KM12
HOP-92 = test system: HOP-92
LOX IMVI = test system: LOX IMVI
PC-3 = test system: PC-3
MOLT-4 = test system: MOLT-4
NCI-H226 = test system: NCI-H226
HT-29 = test system: HT-29
HOP-62 = test system: HOP-62
SF-295 = test system: SF-295
A498 = test system: A498
NCI-H522 = test system: NCI-H522
UACC-257 = test system: UACC-257
M14 = test system: M14
SF-539 = test system: SF-539
NCI/ADR-RES = test system: NCI/ADR-RES
HCT-15 = test system: HCT-15
MCF7 = test system: MCF7
OVCAR-4 = test system: OVCAR-4
RXF 393 = test system: RXF 393
TK-10 = test system: TK-10
OVCAR-5 = test system: OVCAR-5
MDA-MB-231 = test system: MDA-MB-231
SK-OV-3 = test system: SK-OV-3
K562 = test system: K562
OVCAR-8 = test system: OVCAR-8
RPMI-8226 = test system: RPMI-8226
SN12C = test system: SN12C
786-0 = test system: 786-0
U-251 = test system: U-251
SK-MEL-2 = test system: SK-MEL-2
HCC 2998 = test system: HCC 2998
UO-31 = test system: UO-31
EKVX = test system: EKVX
MDA-N = test system: MDA-N
SR = test system: SR
SW-620 = test system: SW-620
NCI-H23 = test system: NCI-H23
OVCAR-3 = test system: OVCAR-3

COc1cc(C(=O)O)ccc1OS(=O)(=O)O
GI50 (SF-268): > 100 µM (inactive) | GI50 (SK-MEL-5): > 100 µM (inactive) | GI50 (CCRF-CEM): > 100 µM (inactive) | GI50 (IGROV-1): > 100 µM (inactive) | GI50 (COLO 205): > 100 µM (inactive) | GI50 (BT-549): > 100 µM (inactive) | GI50 (NCI-H460): > 100 µM (inactive) | GI50 (DU-145): > 100 µM (inactive) | GI50 (CAKI-1): > 100 µM (inactive) | GI50 (SNB-75): > 100 µM (inactive) | GI50 (HL-60): > 100 µM (inactive) | GI50 (Malme-3M): > 100 µM (inactive) | GI50 (SK-MEL-28): > 100 µM (inactive) | GI50 (A549): > 100 µM (inactive) | GI50 (UACC-62): > 100 µM (inactive) | GI50 (ACHN): > 100 µM (inactive) | GI50 (T47D): > 100 µM (inactive) | GI50 (HCT-116): > 100 µM (inactive) | GI50 (MDA-MB-435): > 100 µM (inactive) | GI50 (SNB-19): > 100 µM (inactive) | GI50 (Hs-578T): > 100 µM (inactive) | GI50 (KM12): > 100 µM (inactive) | GI50 (HOP-92): > 100 µM (inactive) | GI50 (LOX IMVI): > 100 µM (inactive) | GI50 (PC-3): > 100 µM (inactive) | GI50 (MOLT-4): > 100 µM (inactive) | GI50 (NCI-H226): > 100 µM (inactive) | GI50 (HT-29): > 100 µM (inactive) | GI50 (HOP-62): > 100 µM (inactive) | GI50 (SF-295): > 100 µM (inactive) | GI50 (A498): > 10 µM (inactive) | GI50 (NCI-H522): > 100 µM (inactive) | GI50 (UACC-257): > 100 µM (inactive) | GI50 (M14): > 100 µM (inactive) | GI50 (SF-539): > 100 µM (inactive) | GI50 (NCI/ADR-RES): > 100 µM (inactive) | GI50 (HCT-15): > 100 µM | GI50 (MCF7): > 100 µM (inactive) | GI50 (OVCAR-4): > 100 µM (inactive) | GI50 (RXF 393): 30.3 µM (inactive) | GI50 (TK-10): > 100 µM (inactive) | GI50 (OVCAR-5): > 100 µM (inactive) | GI50 (MDA-MB-231): > 100 µM (inactive) | GI50 (SK-OV-3): > 100 µM (inactive) | GI50 (K562): > 100 µM (inactive) | GI50 (OVCAR-8): > 100 µM (inactive) | GI50 (RPMI-8226): > 100 µM (inactive) | GI50 (SN12C): > 100 µM (inactive) | GI50 (786-0): > 100 µM (inactive) | GI50 (U-251): > 100 µM (inactive) | GI50 (SK-MEL-2): > 100 µM (inactive) | GI50 (HCC 2998): > 100 µM (inactive) | GI50 (UO-31): > 100 µM (inactive) | GI50 (EKVX): > 100 µM (inactive) | GI50 (MDA-N): > 100 µM (inactive) | GI50 (SR): > 100 µM (inactive) | GI50 (SW-620): > 100 µM (inactive) | GI50 (NCI-H23): > 100 µM (inactive) | GI50 (OVCAR-3): > 100 µM (inactive)
